# Source: US7763648B2, “Oxa-steroids derivatives as selective progesterone receptor modulators” (Janssen Pharmaceutica N.V., priority 2006, dated 2010)
# How the values were obtained:
# [1] = system: T47D human breast cancer cells; experiment: T47D Human Breast Cancer Cells Assay (alkaline phosphatase); type: cell-based; conditions: 24 h with test compound, luminescence
# Description: T47D Human Breast Cancer Cells Assay
# T47D human breast cancer cells were grown in RPMI medium without phenol red (Invitrogen) containing 10% (v/v) heat-inactivated fetal bovine serum (FBS; Hyclone), 1% (v/v) penicillin-streptomycin (Invitrogen), 1% (w/v) glutamine (Invitrogen), and […] insulin (Sigma). Incubation conditions were 37° C. in a humidified 5% (v/v) carbon dioxide environment.
# The cells were plated in 96-well tissue culture plates at 10,000 cells per well in assay medium [RPMI medium without phenol red (Invitrogen) containing 5% (v/v) charcoal-treated FBS (Hyclone) and 1% (v/v) penicillin-streptomycin (Invitrogen)]. Two days later, the medium was decanted and test compound or control were added at a final concentration of 0.1% (v/v) dimethyl sulfoxide in fresh assay medium. Twenty-four hours later, an alkaline phosphatase assay was performed using a SEAP kit (BD Biosciences Clontech, Palo Alto, Calif.). Briefly, the medium was decanted and the cells were fixed for 30 minutes at room temperature with 5% (v/v) formalin (Sigma). The cells were washed once with room temperature Hank's buffered saline solution (Invitrogen). Equal volumes (0.05 mL) of 1× Dilution Buffer, Assay Buffer and 1:20 substrate/enhancer mixture were then added. After 1 hour incubation at room temperature in the dark, the lysate was transferred to a white 96-well plate (Dynex) and luminescence was read using a LuminoSkan Ascent (Thermo Electron, Woburn, Mass.).
# [2] = system: A549 Human lung carcinoma cells; experiment: A549 Human Lung Cell Assay (transfected, dexamethasone challenge, Luc-assay); type: cell-based; conditions: Dexamathasone challenge, 24 h
# Description: A549 Human Lung Cell Assay
# A549 Human lung carcinoma cells were grown in F-12K Nutrient Mixture containing 10% (v/v) fetal bovine serum (FBS; Invitrogen), 2 mM glutamine and 0.15% sodium dicarbonate (Invitrogen).
# A549 cells were split 1 to 3 in 175 cm tissue culture flask. The cells were incubated at 37° C. in CO2 incubator until the cells were 95% confluent (typically 24-30 hours).
# The following solutions were prepared in sterile tubes: (a) Solution A: 1.5 μg/ml of DNA in 8.5 ml OPTI-MEM I Reduced Serum Medium. (GIBCO cat# 31985) and (b) Solution B: 6 μl/ml of DMRIE-C Reagent into […] OPTI-MEM I. The two solutions were combined and mixed gently, then incubated at room temperature for 40 minutes.
# The A549 cells prepared above were washed with […] of OPTI-MEM I. The medium was removed and 17 ml of the lipid-DNA complex solution was overlayed onto cells. The cells ere then incubated for 16 h at 37° C. in CO2 incubator. The DNA-containing medium was removed and 30 ml of growth medium was added. (5% Charcoal treated FBS) After 5-6 h, the cells were seeded in a 96 well plate and the cells incubated overnight at 37° C. in CO2 incubator.
# To each well was then added 5 μl of test compounds and the cells incubated at 37° C. for 10 min. 5 μL of Dexamathasone (CAS [50-02-2]), was then added to each well for challenger and the cells incubated at 37° C. in CO2 incubator for 24 h. 100 μl of Luc-assay buffer was then added into each cell well and the cells incubated for 30 min at room temperature. A 150 μL sample from each well was then transferred into a DYNEX Microlitel plate and read on Top-counter.
IC50 [1] [nM],IC50 [2] [nM],SMILES
5.15,86.5,"CC#C[C@]1(O)CC[C@H]2[C@@H]3OCC4=CC(=O)CCC4=C3[C@@H](c3ccc(N(C)C)cc3)C[C@@]21C [Compound 1, 11-(4-Dimethylamino-phenyl)-17-hydroxy-13-methyl-17-prop-1-ynyl-1,2,8,11,12,13,14,15,16,17-decahydro-6H-7-oxa-cyclopenta[a]phenanthren-3-one]"
19,204,"C#C[C@]1(O)CC[C@H]2[C@@H]3OCC4=CC(=O)CCC4=C3C(c3ccc(N(C)C)cc3)C[C@@]21C (stereo in doubt) [Compound 4, 11-(4-Dimethylamino-phenyl)-17-ethynyl-17-hydroxy-13-methyl-1,2,8,11,12,13,14,15,16,17-decahydro-6H-7-oxa-cyclopenta[a]phenanthren-3-one]"
> 1000,> 3000,CN(C)CC#C[C@]1(O)CC[C@H]2[C@@H]3OCC4=CC(=O)CCC4=C3C(c3ccc(N(C)C)cc3)C[C@@]21C (some centres unmarked) [Compound 31]
1.55,56,"CN(C)c1ccc([C@H]2C[C@@]3(C)[C@@H](CC[C@@]3(O)C#Cc3ccsc3)[C@@H]3OCC4=CC(=O)CCC4=C32)cc1 [Compound 29, 11-(4-Dimethylamino-phenyl)-17-hydroxy-13-methyl-17-thiophen-3-ylethynyl-1,2,8,11,12,13,14,15,16,17-decahydro-6H-7-oxa-cyclopenta[a]phenanthren-3-one]"
> 1000,559,"CN(C)c1ccc(C2C[C@@]3(C)[C@@H](CC[C@@]3(O)C#CC(C)(C)O)[C@@H]3OCC4=CC(=O)CCC4=C23)cc1 (stereo in doubt) [Compound 6, 11-(4-Dimethylamino-phenyl)-17-hydroxy-17-(3-hydroxy-3-methyl-but-1-ynyl)-13-methyl-1,2,8,11,12,13,14,15,16,17-decahydro-6H-7-oxa-cyclopenta[a]phenanthren-3-one]"
600,315,"COCC#C[C@]1(O)CC[C@H]2[C@@H]3OCC4=CC(=O)CCC4=C3C(c3ccc(N(C)C)cc3)C[C@@]21C (stereo in doubt) [Compound 30, 11-(4-Dimethylamino-phenyl)-17-hydroxy-17-(3-methoxy-prop-1-ynyl)-13-methyl-1,2,8,11,12,13,14,15,16,17-decahydro-6H-7-oxa-cyclopenta[a]phenanthren-3-one]"

# Further lines, the compound ahead of its results:
SMILES,IC50 [1] [nM],IC50 [2] [nM]
"CN(C)c1ccc([C@H]2C[C@@]3(C)[C@@H](CC[C@@]3(O)C#Cc3cccc(C(F)(F)F)c3)[C@@H]3OCC4=CC(=O)CCC4=C32)cc1 [Compound 23, 11-(4-Dimethylamino-phenyl)-17-hydroxy-13-methyl-17-(3-trifluoromethyl-phenylethynyl)-1,2,8,11,12,13,14,15,16,17-decahydro-6H-7-oxa-cyclopenta[a]phenanthren-3-one]",2.65,45.4
"CN(C)c1ccc([C@H]2C[C@@]3(C)[C@@H](CC[C@@]3(O)C#Cc3ccccc3F)[C@@H]3OCC4=CC(=O)CCC4=C32)cc1 [Compound 16, 11-(4-Dimethylamino-phenyl)-17-(2-fluoro-phenylethynyl)-17-hydroxy-13-methyl-1,2,8,11,12,13,14,15,16,17-decahydro-6H-7-oxa-cyclopenta[a]phenanthren-3-one]",1.43,65.1
"CN(C)c1ccc(C2C[C@@]3(C)[C@@H](CC[C@@]3(O)C#Cc3ccc(C(C)(C)C)cc3)[C@@H]3OCC4=CC(=O)CCC4=C23)cc1 (stereo in doubt) [Compound 10, 17-(4-tert-Butyl-phenylethynyl)-11-(4-dimethylamino-phenyl)-17-hydroxy-13-methyl-1,2,8,11,12,13,14,15,16,17-decahydro-6H-7-oxa-cyclopenta[a]phenanthren-3-one]",19.5,65.8
"CN(C)c1ccc([C@H]2C[C@@]3(C)[C@@H](CC[C@@]3(O)C#Cc3ccccc3)[C@@H]3OCC4=CC(=O)CCC4=C32)cc1 [Compound 3, 11-(4-Dimethylamino-phenyl)-17-hydroxy-13-methyl-17-phenylethynyl-1,2,8,11,12,13,14,15,16,17-decahydro-6H-7-oxa-cyclopenta[a]phenanthren-3-one]",1.38,304
"CN(C)c1ccc([C@H]2C[C@@]3(C)[C@@H](CC[C@@]3(O)C#Cc3cc(F)cc(F)c3)[C@@H]3OCC4=CC(=O)CCC4=C32)cc1 [Compound 18, 17-(3,5-Difluoro-phenylethynyl)-11-(4-dimethylamino-phenyl)-17-hydroxy-13-methyl-1,2,8,11,12,13,14,15,16,17-decahydro-6H-7-oxa-cyclopenta[a]phenanthren-3-one]",0.905,34.4
"CN(C)c1ccc([C@H]2C[C@@]3(C)[C@@H](CC[C@@]3(O)C#Cc3ccc(Cl)cc3)[C@@H]3OCC4=CC(=O)CCC4=C32)cc1 [Compound 12, 17-(4-Chloro-phenylethynyl)-11-(4-dimethylamino-phenyl)-17-hydroxy-13-methyl-1,2,8,11,12,13,14,15,16,17-decahydro-6H-7-oxa-cyclopenta[a]phenanthren-3-one]",0.613,43.5
CN(C)c1ccc([C@H]2C[C@@]3(C)[C@@H](CC[C@@]3(O)C#Cc3ccc(C(F)(F)F)cc3)[C@@H]3OCC4=CC(=O)CCC4=C32)cc1 [Compound 9],0.748,111
